# In patent US20060247184A1, “Treatment and prophylaxis of diseases and infections pigs and poultry” (Eco Animal Health Ltd., priority 2000, published 2006):
# Like-named read-outs stand apart in the source and are kept apart here.
# Assays:
# [1] = test system: Brachyspira hyodysenteriae; assay: Sensitivity (MIC) for AIVLOSIN and chlortetracycline, alone and in combination; type: cell-based; conditions: for MIC: Brachyspira hyodysenteriae, alone; for MIC of each for combination of CTC + AIV: in combination CTC + AIV
# Text: 4. Sensitivity of Bacteria for AIVLOSIN and Tetracyclines, Alone and in Combination.
# Sensitivity is expressed as the lowest concentration of an antibiotic (in mcg/ml) that inhibits the growth of the test bacteria (MIC=Minimum Inhibitory Concentration).
# Brachyspira Hyodysenteriae
# [2] = test system: Mycoplasma Synoviae; assay: Sensitivity (MIC) for AIVLOSIN and tetracyclines, alone and in combination; type: cell-based; conditions: for MIC: Mycoplasmopsis synoviae, alone; for MIC of each for combination CTC + AIV: in combination CTC + AIV; for MIC of each for combination OTC + AIV: in combination OTC + AIV
# [3] = test system: Brachyspira hyodysenteriae; assay: Swine dysentery animal disease model, prevention of clinical disease; type: in vivo, pigs
# [4] = test system: Brachyspira hyodysenteriae; assay: Swine dysentery, treatment of clinical outbreak; type: in vivo, pigs
# [5] = test system: Brachyspira hyodysenteriae; assay: In vitro MIC against Brachyspira hyodysenteriae strains (Table 2); type: cell-based
# [6] = test system: Clostridium perfringens; type: cell-based
compound,measurement,setting,value
"CN(C)[C@@H]1C(O)=C(C(N)=O)C(=O)[C@@]2(O)C(O)=C3C(=O)c4c(O)ccc(Cl)c4[C@@](C)(O)[C@H]3C[C@@H]12 [CTC, chlortetracycline]",MIC,[1]; strain AF6,0.5 µg/mL
same,MIC,[1]; strain P265-9-97,16 µg/mL
same,MIC,[1]; strain P268-9-97,16 µg/mL
same,MIC,[1]; strain P578-6-97,16 µg/mL
same,MIC of each for combination of CTC + AIV,[1]; strain AF6,0.125 µg/mL
same,MIC of each for combination of CTC + AIV,[1]; strain P265-9-97,4.0 µg/mL
same,MIC of each for combination of CTC + AIV,[1]; strain P268-9-97,8.0 µg/mL
same,MIC of each for combination of CTC + AIV,[1]; strain P578-6-97,8.0 µg/mL
same,MIC,[2]; strain 173,0.78 µg/mL
same,MIC,[2]; strain 185,0.78 µg/mL
same,MIC,[2]; strain 211,0.39 µg/mL
same,MIC,[2]; strain 312,3.12 µg/mL
same,MIC,[2]; strain wvu 1835,0.39 µg/mL
same,MIC of each for combination CTC + AIV,[2]; strain 173,0.1 µg/mL
same,MIC of each for combination CTC + AIV,[2]; strain 185,0.1 µg/mL
same,MIC of each for combination CTC + AIV,[2]; strain 211,0.1 µg/mL
same,MIC of each for combination CTC + AIV,[2]; strain 312,0.1 µg/mL
same,MIC of each for combination CTC + AIV,[2]; strain wvu 1835,0.1 µg/mL
"CN(C)[C@@H]1C(O)=C(C(N)=O)C(=O)[C@@]2(O)C(O)=C3C(=O)c4c(O)cccc4[C@@](C)(O)[C@H]3[C@H](O)[C@@H]12 [OTC, oxytetracycline]",MIC,[2]; strain 173,0.39 µg/mL
same,MIC,[2]; strain 185,0.2 µg/mL
same,MIC,[2]; strain 211,0.39 µg/mL
same,MIC,[2]; strain 312,0.78 µg/mL
same,MIC,[2]; strain wvu 1835,0.39 µg/mL
same,MIC of each for combination OTC + AIV,[2]; strain 173,0.1 µg/mL
same,MIC of each for combination OTC + AIV,[2]; strain 185,0.1 µg/mL
same,MIC of each for combination OTC + AIV,[2]; strain 211,0.1 µg/mL
same,MIC of each for combination OTC + AIV,[2]; strain 312,0.1 µg/mL
same,MIC of each for combination OTC + AIV,[2]; strain wvu 1835,0.1 µg/mL
"C=C[C@]1(C)C[C@@H](OC(=O)CSCCN(CC)CC)[C@]2(C)[C@H](C)CC[C@]3(CCC(=O)[C@H]32)[C@@H](C)[C@@H]1O [Tiamulin, tiamulin]",Period for which the drug needs to be provided to prevent an outbreak,[3]; artificially infected pigs,whole period in which the pigs are at risk
same,Mean days to clear B.Hyo,[4]; 100 ppm 10 days,5.8 days
same,Mean days to recovery,[4]; 100 ppm 10 days,4.4 days
same,Mean score at start,"[4]; 100 ppm 10 days, clinical scoring 0 = normal, 6 = moribund, baseline",4.0
"CC[C@H]1OC(=O)C[C@@H](O)[C@H](C)[C@@H](O[C@@H]2O[C@H](C)[C@@H](O[C@H]3C[C@@](C)(O)[C@@H](O)[C@H](C)O3)[C@H](N(C)C)[C@H]2O)[C@@H](CC=O)C[C@@H](C)C(=O)/C=C/C(C)=C/[C@@H]1CO[C@@H]1O[C@H](C)[C@@H](O)[C@@H](OC)[C@H]1OC [Tylosin, tylosin]",MIC,[5]; strain AF 6/80,6.25 µg/mL
same,MIC,[5]; strain PI8A,> 200 µg/mL
same,MIC,[5]; strain PO268-07.98,> 200 µg/mL
same,Period for which the drug needs to be provided to prevent an outbreak,"[3]; pig, in vivo",≥ 21 days
same,Mean days to clear B.Hyo,[4]; 100 ppm 21 days,3.0 days
same,Mean days to recovery,[4]; 100 ppm 21 days,2.1 days
same,Mean score at start,[4]; 100 ppm 21 days,3.7
zinc bacitracin,MIC,[6]; strain 378,3.125 µg/mL
same,MIC,[6]; strain 389,1.56 µg/mL
same,MIC,[6]; strain 392,1.56 µg/mL
same,MIC,[6]; strain 395,3.125 µg/mL
same,MIC,[6]; strain 410,3.125 µg/mL
same,MIC,[6]; strain 412,6.25 µg/mL
same,MIC,[6]; strain 413,6.25 µg/mL
